Consider three molecules from EP0296574A2, “Cholecystokinin analogs for controlling appetite” (F. HOFFMANN-LA ROCHE AG, priority 1987, dated 1988).

One assay concerns the target T1, Bovine Striatum (Bos taurus, UniProt P79266).
T1 construct: tissue homogenate (striatum 0.26 mg protein in 2 ml final volume); from tissue; host or cells: bovine striatum homogenate (membrane pellet)
T1 sequence (P79266 1-454): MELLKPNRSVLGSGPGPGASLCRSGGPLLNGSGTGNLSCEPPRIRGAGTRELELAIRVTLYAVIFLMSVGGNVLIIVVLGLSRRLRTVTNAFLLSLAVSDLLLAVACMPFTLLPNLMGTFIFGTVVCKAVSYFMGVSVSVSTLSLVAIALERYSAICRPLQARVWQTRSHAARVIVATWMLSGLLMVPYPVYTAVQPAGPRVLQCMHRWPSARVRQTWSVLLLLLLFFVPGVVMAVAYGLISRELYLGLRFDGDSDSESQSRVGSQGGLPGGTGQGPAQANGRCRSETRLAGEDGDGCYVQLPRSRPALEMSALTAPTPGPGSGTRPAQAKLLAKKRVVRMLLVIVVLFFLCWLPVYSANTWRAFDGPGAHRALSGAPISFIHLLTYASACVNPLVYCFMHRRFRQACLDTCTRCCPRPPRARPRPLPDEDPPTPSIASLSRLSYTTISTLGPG
The experiment in a line: In vitro receptor binding assay, inhibition of ³H-CCK-8-(SO₃H) binding to bovine striatum homogenate. Particulars: ³H-CCK-8-(SO₃H) 0.15 nM, 30 min at 25° C; read-out: Bovine Striatum (IC₅₀ value). The procedure: (§1) The tissue was homogenized 2 x for approx. 15 sec. at 0°C using a Polytron homogenizer at a setting of 6. The tissue was isolated by centrifugation at 48,000 x g for 10 min. at 0°C. […] Samples were incubated for 30 min. at 25° C and the incubation terminated by pouring the mixture onto a pre-wet Whatman GF/B filter on a Sandbeck Vacuum Filtration Manifold. The incubation tubes were washed with 2 x 3 ml of ice-cold HEPES Buffer #2 and the wash filtered through the GF/B filter. The filter was air dried for 10 min. and then placed in a scintillation vial with 12 ml of Beckman HP/b Ready-Solv scintillation cocktail. The vials were shaken for 2 hours and then counted using a Beckman Model 7800 liquid scintillation spectrometer.

Another assay deals with T2, Rat Pancreas (Rattus norvegicus, UniProt P30551).
T2 construct: pancreas 0.165 mg protein in 1 ml final volume; from tissue; host or cells: rat pancreas homogenate (membrane pellet)
T2 sequence (P30551 1-444): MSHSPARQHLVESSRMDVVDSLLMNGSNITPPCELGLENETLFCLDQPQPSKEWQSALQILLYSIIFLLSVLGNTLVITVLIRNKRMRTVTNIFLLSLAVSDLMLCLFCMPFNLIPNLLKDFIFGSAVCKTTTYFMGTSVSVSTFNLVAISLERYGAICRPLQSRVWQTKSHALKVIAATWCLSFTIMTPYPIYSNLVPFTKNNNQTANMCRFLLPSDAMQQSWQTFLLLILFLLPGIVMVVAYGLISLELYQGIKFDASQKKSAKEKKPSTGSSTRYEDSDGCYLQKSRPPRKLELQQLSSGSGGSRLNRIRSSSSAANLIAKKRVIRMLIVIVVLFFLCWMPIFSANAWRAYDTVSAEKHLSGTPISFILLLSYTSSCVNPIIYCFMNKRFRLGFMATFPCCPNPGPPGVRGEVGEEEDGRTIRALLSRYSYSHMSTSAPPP
In words: In vitro receptor binding assay, inhibition of ³H-CCK-8-(SO₃H) binding to rat pancreas homogenate. Particulars: ³H-CCK-8-(SO₃H) 0.15 nM, 30 min at 25° C; read-out: Rat Pancreas (IC₅₀ value). The procedure: as §1

Where a SMILES comes first, the peptide text is derived from it. [ ]: non-standard residue; d: D form. Thr(SO3H) = C[C@@H](OS(=O)(=O)O)[C@H](N)C(=O)O; sY = N[C@@H](Cc1ccc(OS(=O)(=O)O)cc1)C(=O)O; NMeF = CN[C@@H](Cc1ccccc1)C(=O)O; Nle = CCCC[C@H](N)C(=O)O

Regarding `CSCC[C@H](NC(=O)[C@H](Cc1ccc(OS(=O)(=O)O)cc1)NC(=O)[C@@H](N)CC(=O)O)C(=O)NCC(=O)N[C@@H](Cc1c[nH]c2ccccc12)C(=O)N[C@@H](CCSC)C(=O)N[C@@H](CC(=O)O)C(=O)N[C@@H](Cc1ccccc1)C(N)=O` [CCK-8, reference compound], the IC50 is 1 to 3.2 nM on Bovine Striatum and 1 to 4.6 nM on Rat Pancreas.
For `CSCC[C@H](NC(=O)[C@H](Cc1c[nH]c2ccccc12)NC(=O)CNC(=O)[C@H](Cc1ccc(OS(=O)(=O)O)cc1)NC(C)=O)C(=O)N[C@H](C(=O)N(C)[C@@H](Cc1ccccc1)C(N)=O)[C@@H](C)OS(=O)(=O)O` [Example 2, Ac-Tyr(SO₃H)-Gly-Trp-Met-Thr(SO₃H)-N-methyl-Phe-NH₂] (Ac-[sY]GWM[Thr(SO3H)][NMeF]-NH2), in that order: 1600 nM and 70 nM.
For `CCCC[C@H](NC(=O)[C@H](Cc1ccc(OS(=O)(=O)O)cc1)NC(C)=O)C(=O)NCC(=O)N[C@@H](Cc1c[nH]c2ccccc12)C(=O)N[C@@H](CCCC)C(=O)N[C@H](C(=O)N(C)[C@@H](Cc1ccccc1)C(N)=O)[C@@H](C)OS(=O)(=O)O` [Example 1, Ac-Tyr(SO₃H)-Nle-Gly-Trp-Nle-Thr(SO₃H)-N-methyl-Phe-NH₂] (Ac-[sY][Nle]GW[Nle][Thr(SO3H)][NMeF]-NH2), in that order: 245 nM and 0.14 nM.
